Values after ≈ are worked out from the molar mass of the structure shown. Where two headings read alike, the source gives them in different places.
Legend:
[1] = Glyburide solubility in intravenous dosing solutions; format: physicochemical
[2] = Stability of glyburide after reconstitution with Tris buffer, HPLC (Example 6); format: physicochemical; conditions: for Glyburide content (mg/mL) at T0 h / Glyburide content (mg/mL) at T2 h / Glyburide content (mg/mL) at T24 h: +50% excess NaOH, 0.22 um filtered, HPLC; for Recon vial pH: lyophilized formulation +50% excess NaOH
Method: The contents of the vial were dissolved by gentle shaking and pH after reconstitution was measured. About 1 mL of sample was withdrawn at 0, 1, 2 and 24 hours post reconstitution and filtered through 0.22 um membrane filters and analyzed by HPLC.

[3] = cited from earlier work
[4] = Drug reconstitution and dilution experiments (Example 2); conditions: vial reconstitution pH above 10.2; 6 mg vial, 20 ml WFI, 500 ml saline bag
Method: A maximum final dosing pH of 9.2 (after infusion, there is a slight drop in pH to ˜9, which is the maximum pH of a solution that can be safely infused to a patient) was used as an upper limit constraint on the reconstitution solution and dilution solution pHs. Drug reconstitution and dilution experiments were carried out.

[5] = Mock IV infusion: sorption of glyburide to administration sets; format: physicochemical; conditions: for initial drop in the glyburide concentration: PVC administration sets
From the text: Thus, there was significant unpredictability in how much of the drug product would be administered to a given patient at any given time depending on various factors. […] At lower NaOH:GLY ratios, a longer period of time is required for the drug concentration to recover.

[6] = Studies with phosphate and glycine buffering agents (Example 3); format: physicochemical; conditions: buffering agents phosphate (pKa 7.21) and glycine (pKa 9.8)
From the text: For example, and without limiting the foregoing disclosure, the buffering agent may be Tris, lysine, arginine, an ethylenediamine, an imidazole, a 4-(2-Hydroxyethyl)morpholine, a triethanolamine, a glucamine, a deanol (dimethylaminoethanol), phosphate, phosphate buffered saline (PBS), or a combination thereof.

physchem = test: physchem
Method: An additional critical requirement was that, after reconstitution, the reconstituted formulation must remain sufficiently stable and soluble.
The vial pH after reconstitution (20 ml) can be used to ensure that the appropriate compounding pH was achieved during manufacture. The target reconstitution pH is 9.8 with a range of 9.2-10.2. In some aspects, the concentration after reconstitution is 0.3 mg/ml (6 mg/20 ml).

[7] = aqueous buffer, cited from earlier work
[8] = recon diluent 10 mM tris pH 7.99
[9] = recon diluent 10 mM tris pH 8.25

Solubility ([1]; formulations of the present disclosure): > 15 µg/mL | Solubility ([1]; prior art intravenous glyburide dosing solutions): < 5.7 µg/mL | Glyburide content (mg/mL) at T0 h [2, 8]: 0.29 mg/mL | Glyburide content (mg/mL) at T2 h [2, 8]: 0.29 mg/mL | Glyburide content (mg/mL) at T24 h [2, 8]: 0.29 mg/mL | Glyburide content (mg/mL) at T0 h [2, 9]: 0.29 mg/mL | Glyburide content (mg/mL) at T2 h [2, 9]: 0.29 mg/mL | Glyburide content (mg/mL) at T24 h [2, 9]: 0.29 mg/mL | Recon vial pH ([2]; recon diluent 20 mL 10 mM tris pH 7.99): 8.65 | Recon vial pH ([2]; recon diluent 20 mL 10 mM tris pH 8.25): 8.78 | precipitation of glyburide after reconstitution ([2]; recon pH of 8.65 and 8.78, through 24 hours): No precipitation | final IV bag pH [4]: greater than 9.2 | pH in the final dosing solution ([5]; drug product with NaOH:GLY molar ratio of 13.8 reconstituted into saline with a pH of 7): 9.9 | drug sorption to administration components made of PVC or PUR ([5]; formulation of the present disclosure with the specific buffering agents): eliminated | dip in glyburide concentration ([5]; formulations of the present disclosure, diluted (final dosing) pH less than 7.8, PVC administration sets (FIG. 3)): at least 10% | initial drop in the glyburide concentration ([5]; prior art formulation, NaOH:GLY ratio 3:1, 1 L saline bag): about 40% | initial drop in the glyburide concentration ([5]; prior art formulations with varying NaOH:GLY molar ratios, 1 L saline bag): at least 10% | pH of reconstituted formulation ([5]; prior art glyburide formulations with sufficiently high base to glyburide ratios): ~10 | stabilization of glyburide by buffering agent [6]: did not effectively stabilize glyburide | Solubility (physchem; pH 9.25, aqueous buffer): 480 µg/mL (≈ 972 µM) | Solubility (physchem; pH 9.37, aqueous buffer): 720 µg/mL (≈ 1460 µM)
Compound: COc1ccc(Cl)cc1C(=O)NCCc1ccc(S(=O)(=O)NC(=O)NC2CCCCC2)cc1 [glyburide, 5-chloro-N-(4-[N-(cyclohexylcarbamoyl)sulfamoyl]phenethyl)-2-methoxybenzamide]
Solubility ([3]; all measured pH values from pH 4 to pH 9, Britton-Robinson buffer): below 1 mg/mL | Solubility ([3]; pH 4, 27° C., Britton-Robinson buffer): 4 µg/mL (≈ 8.1 µM) | Solubility ([3]; pH 6, 27° C., Britton-Robinson buffer): 5 µg/mL (≈ 10.1 µM) | Solubility ([3]; pH 7, 27° C., Britton-Robinson buffer): 11 µg/mL (≈ 22.3 µM) | Solubility ([3]; pH 8, 27° C., Britton-Robinson buffer): 80 µg/mL (≈ 162 µM) | Solubility ([3]; pH 9, 27° C., Britton-Robinson buffer): 600 µg/mL (≈ 1210 µM) | sorption in mock infusion test (FIG. 1) ([5]; prior art glyburide formulations, various administration materials): significant sorption immediately at the start of infusion | binding to filter components ([5]; prior art intravenous glyburide formulations, all filter components (data not shown)): readily and extensively binds to all filter components | prevention of sorption to medical materials by buffering agent [6]: did not prevent sorption to medical materials | Solubility ([7]; pH 2, 37° C.): 0.07 µg/mL (≈ 0.142 µM) | Solubility ([7]; pH 3, 37° C.): 0.06 µg/mL (≈ 0.121 µM) | Solubility ([7]; pH 5, 37° C.): 0.1 µg/mL (≈ 0.202 µM) | Solubility ([7]; pH 6, 37° C.): 0.62 µg/mL (≈ 1.26 µM) | Solubility ([7]; pH 7, 37° C.): 5.62 µg/mL (≈ 11.4 µM) | Solubility ([7]; pH 8, 37° C.): 51.2 µg/mL (≈ 104 µM) | Solubility ([7]; pH 9, 37° C.): 98.6 µg/mL (≈ 200 µM) | Solubility ([7]; pH 11.8, 37° C.): 531.6 µg/mL (≈ 1080 µM)

From patent US20250170151A1 (REMEDY PHARMACEUTICALS, INC., priority 2022, published 2025)
